{"source": "ChEMBL document CHEMBL2074274", "about": "“Transport of quinolone antibacterial drugs by human P-glycoprotein expressed in a kidney epithelial cell line, LLC-PK1” (J Pharmacol Exp Ther, 1997)", "format_in_all_cases": "functional, cell-based", "key": {"[1]": {"biological_target": "T1, ATP-dependent translocase ABCB1 (Homo sapiens, UniProt P08183)", "T1 sequence (P08183 whole entry)": "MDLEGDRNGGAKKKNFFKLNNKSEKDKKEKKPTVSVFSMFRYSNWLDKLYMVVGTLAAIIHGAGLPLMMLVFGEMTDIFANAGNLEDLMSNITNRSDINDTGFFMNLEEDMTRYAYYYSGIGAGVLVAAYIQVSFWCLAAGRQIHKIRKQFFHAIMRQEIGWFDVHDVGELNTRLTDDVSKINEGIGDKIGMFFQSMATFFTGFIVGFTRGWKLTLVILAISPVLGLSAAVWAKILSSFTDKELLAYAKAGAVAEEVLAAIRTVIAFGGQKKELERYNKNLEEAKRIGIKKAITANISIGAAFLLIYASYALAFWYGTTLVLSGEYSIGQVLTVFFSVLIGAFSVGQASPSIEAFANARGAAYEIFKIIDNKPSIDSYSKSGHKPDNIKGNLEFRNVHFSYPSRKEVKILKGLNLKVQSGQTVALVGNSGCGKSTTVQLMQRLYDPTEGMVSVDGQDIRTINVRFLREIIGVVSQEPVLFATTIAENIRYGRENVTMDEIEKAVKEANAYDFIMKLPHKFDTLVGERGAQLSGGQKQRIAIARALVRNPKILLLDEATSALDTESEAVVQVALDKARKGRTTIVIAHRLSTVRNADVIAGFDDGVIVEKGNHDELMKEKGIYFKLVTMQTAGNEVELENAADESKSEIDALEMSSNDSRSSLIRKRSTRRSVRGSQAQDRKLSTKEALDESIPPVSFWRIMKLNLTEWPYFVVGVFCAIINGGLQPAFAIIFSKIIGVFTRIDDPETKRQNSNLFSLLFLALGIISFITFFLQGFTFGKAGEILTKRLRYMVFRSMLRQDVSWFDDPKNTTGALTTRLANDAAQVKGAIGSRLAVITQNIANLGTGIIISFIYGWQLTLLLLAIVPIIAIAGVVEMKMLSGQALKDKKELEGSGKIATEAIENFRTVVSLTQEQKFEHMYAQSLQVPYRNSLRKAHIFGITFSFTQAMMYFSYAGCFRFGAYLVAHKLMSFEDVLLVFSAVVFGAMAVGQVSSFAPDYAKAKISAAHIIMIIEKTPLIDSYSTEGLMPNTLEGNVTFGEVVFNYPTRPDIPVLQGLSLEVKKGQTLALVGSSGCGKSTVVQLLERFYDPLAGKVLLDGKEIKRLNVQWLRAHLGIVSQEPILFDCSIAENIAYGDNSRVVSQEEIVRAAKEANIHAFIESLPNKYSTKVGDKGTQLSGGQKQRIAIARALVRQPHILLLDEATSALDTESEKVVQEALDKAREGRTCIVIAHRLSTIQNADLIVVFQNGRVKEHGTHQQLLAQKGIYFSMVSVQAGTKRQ", "experiment": "TP_TRANSPORTER: inhibition of Levofloxacin transepithelial transport (basal to apical) (Levofloxacin: 100 uM, PAH: 2500 uM) in MDR1-expressing LLC-PK1 cells", "details": "pig, llc-pk1, 2500 µM"}, "[2]": {"tested_on": "C[C@H]1COc2c(N3CCN(C)CC3)c(F)cc3c(=O)c(C(=O)O)cn1c23", "experiment": "TP_TRANSPORTER: transepithelial transport (basal to apical) in MDR1-expressing LLC-PK1 cells"}, "[3]": {"biological_target": "T1, ATP-dependent translocase ABCB1", "experiment": "TP_TRANSPORTER: inhibition of Daunorubicin transepithelial transport (basal to apical) (Daunorubicin: 0.1 uM, Levofloxacin: 3000 uM) in MDR1-expressing LLC-PK1 cells", "details": "pig, llc-pk1, 3000 µM"}, "[4]": {"biological_target": "T1, ATP-dependent translocase ABCB1", "experiment": "TP_TRANSPORTER: inhibition of DU-6895a transepithelial transport (basal to apical) (DU-6895a: 100 uM, Levofloxacin: 3000 uM) in MDR1-expressing LLC-PK1 cells", "details": "pig, llc-pk1, 3000 µM"}}}
{"compound": "Nc1ccc(C(=O)NCC(=O)O)cc1", "note": "[AMINOHIPPURIC ACID]", "values": [{"measurement": "Activity", "setting": "[1]", "value": "is not an inhibitor [-]"}]}
{"compound": "ATP-dependent translocase ABCB1 (Homo sapiens)", "values": [{"measurement": "Km", "setting": "[2]", "value": 3, "unit": "mM"}]}
{"compound": "C[C@H]1COc2c(N3CCN(C)CC3)c(F)cc3c(=O)c(C(=O)O)cn1c23.C[C@H]1COc2c(N3CCN(C)CC3)c(F)cc3c(=O)c(C(=O)O)cn1c23.O", "note": "[LEVOFLOXACIN]", "values": [{"measurement": "Activity", "setting": "[3]", "value": "inhibitor [+]"}, {"measurement": "Activity", "setting": "[4]", "value": "inhibitor [+]"}]}
